Where “and” joins values, the source holds several entries; their conditions need not be identical. Identical values can stand only once. Starred links: 1 amine or outer side, 2 acyl side, 3 side chain; linkers in the order of their positions; H or OH if unused. Non-standard residues stand in square brackets, D forms with d. Residues, ends and D or L forms follow the SMILES beside them. Groups on a side chain read outwards from the residue. *: point of attachment. C20 diacid = O=C(O)CCCCCCCCCCCCCCCCCCC(=O)*; C18 diacid = O=C(O)CCCCCCCCCCCCCCCCC(=O)*; γGlu = O=C(O)[C@H](CCC(=O)[*:2])N[*:1]; αMeF = C[C@](N)(Cc1ccccc1)C(=O)O; AEEA = NCCOCCOCC(=O)O; Aib = CC(C)(N)C(=O)O
What was measured:
[1] = Mouse acute food intake study; assay type: in vivo; conditions: male C57Bl/6 mice, s.c., cumulative food intake at 24 hr vs vehicle
Summary of the method: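 Peptide or vehicle went subcutaneously (5 mL/kg) to 6-8 h-fasted male C57Bl/6 mice shortly before the dark phase, with groups balanced on body weight and 24-hour intake. Cumulative food consumption was derived from 48 h of automated BioDaq monitoring with free food and water access.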

[2] = tested on: GLP-1R knockout (KO) mice; test: Glucose change in GLP-1R knockout mice; assay type: in vivo, mouse; conditions: GLP-1R KO mice, s.c., 60 min vs 0 min, no somatostatin pretreatment
Summary of the method: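 GLP-1R knockout mice (n=4-8/group, sorted by body weight) were fasted 2 h, and in some studies pretreated with octreotide 10 mg/kg 30 min before peptide injection. Mice were reused up to 3 times with at least 1-week wash-out.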

wildtype (WT) mice = test: Glucose change in wildtype mice; assay type: in vivo, mouse; conditions: s.c., 60 min vs 0 min, no somatostatin pretreatment
Summary of the method: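 Wildtype mice aged 8-14 weeks, fasted 2 h, sometimes pre-treated with octreotide 10 mg/kg 30 min before peptide injection. Blood glucose by glucometer at -30, 0, 30, 60, 120, 180, 240 and 360 min; n=4-8/group, mice reused up to 3 times with ≥1 week wash-out.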

in vivo [3] = conditions: 10 nmol/kg; for half-life: iv
Excerpt: (§1) Selected test peptides (n=8) were profiled for pharmacokinetic (PK) properties in the mouse after single intravenous (i.v.) or subcutaneous (s.c.) dose. A subset (n=4) meeting the acceptance criteria was subsequently profiled in the dog (single i.v. dose) and non-human primate (single i.v. and s.c. dose). […] Low-binding plasticware containers were used during preparation and sample handling to avoid non-specific binding.
After dosing, PK samples were collected from the dorsal metatarsal vein. Blood of each sample was transferred into plastic micro centrifuge tubes containing EDTA-K2, inverted several times for proper mixing of contents and then placed on wet ice. The blood samples were centrifuged at 4° C. to obtain plasma and stored at −75° C. prior to analysis.
(§2) Samples analysis: Samples were analyzed by LC-MS/MS. Calibration standards were injected at the beginning and end of each batch and the determined concentration for each prepared standard was used to construct a calibration curve. Plasma and dose aliquot sample concentrations were determined from the plasma calibration curve.
(§3) Data analysis: Plasma concentration data was analyzed by non-compartmental analysis (NCA) using Phoenix Winnonlin v. 8.3.3.33. Linear trapezoidal rule was used for increasing values and log trapezoidal rule was used for decreasing values, applying uniform weighting for lambda_z calculations. Subcutaneous bioavailability was calculated as the ratio AUC(s.c.)0-inf/AUC(i.v.)0-inf. Reported values (Table 18) represent the mean of the individual estimates.

[4] = biological target: human GLP-1 receptor (hGLP-1R) (Homo sapiens, UniProt P43220); test: cAMP production (HTRF) in CHO cells expressing hGLP-1R; assay type: cell-based; parameters: expressed in transfected cells; conditions: for EC50: Table 6, peptides modified at position 17, cAMP in CHO hGLP-1R cells, geometric mean, read-out: hGLP-1R EC50; for % Relative Potency Ratio: Table 6, % GLP-1R activity relative to GLP-1 / % GlucR activity relative to glucagon
human GLP-1 receptor (hGLP-1R), sequence (P43220 24-463): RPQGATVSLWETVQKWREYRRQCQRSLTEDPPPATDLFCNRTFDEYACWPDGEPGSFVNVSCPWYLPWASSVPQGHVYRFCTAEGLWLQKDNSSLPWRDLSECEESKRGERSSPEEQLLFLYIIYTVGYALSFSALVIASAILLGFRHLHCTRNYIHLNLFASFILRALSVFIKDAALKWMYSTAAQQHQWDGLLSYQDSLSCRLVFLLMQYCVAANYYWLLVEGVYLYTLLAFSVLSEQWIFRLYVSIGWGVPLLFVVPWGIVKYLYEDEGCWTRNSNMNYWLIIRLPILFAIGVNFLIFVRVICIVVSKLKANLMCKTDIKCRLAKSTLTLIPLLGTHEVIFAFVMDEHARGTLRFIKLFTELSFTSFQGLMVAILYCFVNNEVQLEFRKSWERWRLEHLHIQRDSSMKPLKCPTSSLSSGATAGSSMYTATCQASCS
Summary of the method: (§4)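 Potency values represent EC50 from 4-parameter logistic curves of HTRF % Delta F signal. Receptor-expressing CHO cells (hGCGR 2×10^5 cells/mL, hGLP-1R 1×10^5 cells/mL) were exposed for 30 min at room temperature before two-step cAMP detection.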

[5] = biological target: human glucagon receptor (hGCGR) (Homo sapiens, UniProt P47871); test: cAMP production (HTRF) in CHO cells expressing hGCGR; assay type: cell-based; parameters: expressed in transfected cells; conditions: Table 6, peptides modified at position 17; cAMP in CHO hGCGR cells; geometric mean; read-out: hGluc-R EC50
human glucagon receptor (hGCGR), sequence (P47871 26-477): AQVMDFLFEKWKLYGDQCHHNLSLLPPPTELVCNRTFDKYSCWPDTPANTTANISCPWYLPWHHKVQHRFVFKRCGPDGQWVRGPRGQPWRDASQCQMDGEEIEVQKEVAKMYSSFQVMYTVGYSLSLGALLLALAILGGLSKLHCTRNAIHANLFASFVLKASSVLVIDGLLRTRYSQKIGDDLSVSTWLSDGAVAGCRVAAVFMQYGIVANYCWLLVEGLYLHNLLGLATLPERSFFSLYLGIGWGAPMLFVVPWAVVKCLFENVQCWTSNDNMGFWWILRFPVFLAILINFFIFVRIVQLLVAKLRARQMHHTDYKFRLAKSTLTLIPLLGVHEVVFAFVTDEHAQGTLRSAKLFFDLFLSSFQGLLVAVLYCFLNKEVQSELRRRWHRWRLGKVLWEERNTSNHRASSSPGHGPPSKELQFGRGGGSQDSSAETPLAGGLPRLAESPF
Summary of the method: as §4

in vivo [6] = conditions: male, Beagle, dog, iv, 10 nmol/kg
Excerpt: as §1
Blood of each sample was transferred into plastic micro centrifuge tubes containing EDTA-K2, inverted several times for proper mixing of contents and then placed on wet ice.
as §2, §3

in vivo [7] = conditions: male, cynomolgus monkey, 10 nmol/kg
Excerpt: as §1
Non-human primate: PK was studied in non-naïve male cynomolgus monkeys. After dosing, PK samples were collected from the femoral vein. Blood of each sample was transferred into plastic micro centrifuge tubes containing EDTA-K2, inverted several times for proper mixing of contents and then placed on wet ice. The blood samples were centrifuged under refrigerated (2° C. to 8° C.) conditions within 30 minutes following sample collection to obtain plasma and stored at −60° C. to −90° C.° C. prior to analysis.
as §2, §3

[8] = Proteolytic resistance to FasSSGF containing porcine pancreatic pepsin; assay type: in vitro ADME; conditions: pig, simulated gastric fluid
Summary of the method: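 Peptide (250 μM stock in FasSSGF) mixed 1:1 with porcine pepsin stock (0.5 mg/mL in FasSSGF) and held at 37° C; samples at 0, 5, 10, 15 and 30 min quenched in ammonium bicarbonate, pH 8. Intact peptide remaining estimated by RP-HPLC peak area, UV 210 nm.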

recombinant Neprilysin = biological target: T1, recombinant Neprilysin (Homo sapiens, UniProt P08473); test: Proteolytic resistance to neprilysin; assay type: in vitro ADME; conditions: pH 8.3
T1 construct: purchased R&D Systems 1182-ZNC-010
T1 sequence (P08473 52-750 limits assumed): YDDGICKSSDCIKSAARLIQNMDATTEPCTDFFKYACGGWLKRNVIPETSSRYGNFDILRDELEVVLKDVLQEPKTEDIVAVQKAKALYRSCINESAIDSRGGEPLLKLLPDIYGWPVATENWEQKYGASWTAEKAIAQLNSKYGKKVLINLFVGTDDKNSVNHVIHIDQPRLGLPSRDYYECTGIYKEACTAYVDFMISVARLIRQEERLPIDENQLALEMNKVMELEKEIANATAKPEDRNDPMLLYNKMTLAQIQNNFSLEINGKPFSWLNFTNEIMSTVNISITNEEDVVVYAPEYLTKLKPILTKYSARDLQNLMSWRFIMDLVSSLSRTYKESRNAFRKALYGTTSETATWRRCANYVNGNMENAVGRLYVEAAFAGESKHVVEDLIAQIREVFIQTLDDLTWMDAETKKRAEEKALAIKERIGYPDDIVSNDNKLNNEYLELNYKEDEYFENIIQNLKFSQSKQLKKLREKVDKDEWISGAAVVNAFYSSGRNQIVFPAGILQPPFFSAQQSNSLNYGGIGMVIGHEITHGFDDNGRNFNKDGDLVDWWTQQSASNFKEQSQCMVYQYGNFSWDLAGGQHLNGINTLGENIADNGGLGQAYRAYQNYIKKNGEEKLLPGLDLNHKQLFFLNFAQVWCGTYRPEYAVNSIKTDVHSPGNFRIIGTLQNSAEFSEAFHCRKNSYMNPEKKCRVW
Procedure: 10.0 μg (˜10 units) recombinant Neprilysin (R&D Systems: 1182-ZNC-010) was reconstituted to 100 μL (100 μg/mL, ˜100 units/mL) in assay buffer (50 mM Tris, 50 mM NaCl, 50 mM NaHCO3, adjusted to pH 8.3) to give the enzyme stock solution. Peptide stock solutions were prepared to a concentration of ˜250 μM (˜1.0 mg/mL of 4 kDa peptide) in assay buffer. 100 μL (10 μg, ˜10 units) of neprilysin stock solution was added to 100 μL of peptide stock solution (1.0 mg/mL, ˜100 μg of peptide) and the mixture was co-incubated in a temperature regulated incubator at 37° C. for the duration of the experiment. 25 μL aliquots (˜ 12.5 μg initial peptide) of the peptide-enzyme mixture were periodically withdrawn (t=0, 30 mins, 1 h, 2 h, 4 h and 24 h) and quenched immediately by addition to an equal volume ([…]) of 10% TFA (v/v) in 1:1 water/acetonitrile to arrest proteolytic activity. The quenched aliquot centrifuged at 7800 rpm, and 30 μL of the supernatant was analyzed by analytical RP-HPLC as follows: Analytical RP-HPLC method: Agilent Polaris C8-A column (4.6×100 mm, 3 micron) eluted with a linear binary gradient of 10-90% MeCN (0.1% TFA v/v) in water (0.1% TFA v/v) over either 10 or 15 mins at 1.5 mL min-1 at 40° C. with detection by UV absorption at 210 nm. Manual integration (AUC) allowed estimation of remaining intact peptide over the time course of the experiment.

[9] = Proteolytic resistance to FasSSIF/Pancreatin; assay type: in vitro ADME; conditions: simulated intestinal fluid
Summary of the method: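 Peptide (1.0 mg) in pre-warmed FasSSIF, proteolysis started with fresh FasSSIF/USP Pancreatin and held at 37 °C. Aliquots at 0, 5, 10, 15, 30 min quenched in 10% TFA; remaining intact peptide estimated by RP-HPLC peak area, UV 210 nm.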

| bioavailability (in vivo [3]; male, C57BL/6, mouse) [%] | half-life (in vivo [3]; male, C57BL/6, mouse) [h] | EC50 [4] [nM] | % Relative Potency Ratio [4] | EC50 [5] [nM] | SMILES | 24 hr % Vehicle Food Intake ([1]; dose 10 nmol/kg) | GLP-1R KO % glucose change - 60 min ([2]; 10 nmol/kg) [%] | GLP-1R KO % glucose change - 60 min ([2]; 30 nmol/kg) [%] | WT % glucose change 60 min (wildtype (WT) mice; 10 nmol/kg) [%] | WT % glucose change 60 min (wildtype (WT) mice; 30 nmol/kg) [%] | also measured |
| --- | --- | --- | --- | --- | --- | --- | --- | --- | --- | --- | --- |
| 102 | 6.4 | 0.0227 | 4.0 | 0.0464 | CC(C)C[C@H](NC(=O)[C@H](Cc1c[nH]c2ccccc12)NC(=O)[C@H](CCCNC(=N)N)NC(=O)[C@@H](NC(=O)[C@H](Cc1ccccc1)NC(=O)[C@H](CC(=O)O)NC(=O)[C@H](CCC(N)=O)NC(=O)[C@H](C)NC(=O)[C@H](CCCNC(=N)N)NC(=O)[C@H](CCCCNC(=O)COCCOCCNC(=O)COCCOCCNC(=O)CC[C@H](NC(=O)CCCCCCCCCCCCCCCCC(=O)O)C(=O)O)NC(=O)[C@@H](NC(=O)[C@H](CC(=O)O)NC(=O)[C@H](CC(C)C)NC(=O)[C@](C)(Cc1ccccc1)NC(=O)[C@H](CCCCN)NC(=O)[C@H](CO)NC(=O)[C@@H](NC(=O)[C@H](CC(=O)O)NC(=O)[C@H](CO)NC(=O)[C@@H](NC(=O)[C@H](Cc1ccccc1)NC(=O)[C@@H](NC(=O)CNC(=O)[C@H](CCC(N)=O)NC(=O)C(C)(C)NC(=O)[C@@H](N)Cc1c[nH]cn1)[C@@H](C)O)[C@@H](C)O)C(C)C)[C@@H](C)O)C(C)C)C(=O)N[C@@H](CC(C)C)C(=O)N[C@@H](CCC(=O)O)C(=O)NC(C)(C)C(=O)NCC(=O)O [Peptide 140] (H-H[Aib]QGTFTSDVSK[αMeF]LDTK([AEEA-AEEA-γGlu-C18 diacid])RAQDFVRWLLE[Aib]G-OH; N-terminus assumed) | 65.4% | 46.2 | 59.8 | −32.1 | −29.0 |  |
| 98 | 7.9 | 0.0208 | 3.3 | 0.0347 | CC(C)C[C@H](NC(=O)[C@H](Cc1c[nH]c2ccccc12)NC(=O)[C@H](CCC(N)=O)NC(=O)[C@@H](NC(=O)[C@H](Cc1ccccc1)NC(=O)[C@H](CC(=O)O)NC(=O)[C@H](CCCNC(=N)N)NC(=O)[C@H](C)NC(=O)[C@H](CCCNC(=N)N)NC(=O)[C@H](CCCCNC(=O)COCCOCCNC(=O)COCCOCCNC(=O)CC[C@H](NC(=O)CCCCCCCCCCCCCCCCC(=O)O)C(=O)O)NC(=O)[C@@H](NC(=O)[C@H](CC(=O)O)NC(=O)[C@H](CC(C)C)NC(=O)[C@](C)(Cc1ccccc1)NC(=O)[C@H](CCCCN)NC(=O)[C@H](CO)NC(=O)[C@@H](NC(=O)[C@H](CC(=O)O)NC(=O)[C@H](CO)NC(=O)[C@@H](NC(=O)[C@H](Cc1ccccc1)NC(=O)[C@@H](NC(=O)CNC(=O)[C@H](CCC(N)=O)NC(=O)C(C)(C)NC(=O)[C@@H](N)Cc1c[nH]cn1)[C@@H](C)O)[C@@H](C)O)C(C)C)[C@@H](C)O)C(C)C)C(=O)N[C@@H](CC(C)C)C(=O)N[C@@H](CCC(=O)O)C(=O)NC(C)(C)C(=O)NCC(=O)O [Peptide 188, H-Aib-Q-G-T-F-T-S-D-V—S-K-αMePhe-L-D-T-K-R-A-R-D-F-V-Q-W-L-L-E-Aib-G-acid] | 60.7% and 49.8% | 64 | 44.6 | −23.2 | −31.3 | 24 hr % Vehicle Food Intake ([1]; dose 1 nmol/kg): 99.9%; 24 hr % Vehicle Food Intake ([1]; dose 3 nmol/kg): 80.6%; half-life (in vivo [6]): 71 h; bioavailability (in vivo [7]): 79%; half-life (in vivo [7]; iv): 67 h |
|  |  |  |  |  | CC[C@H](C)[C@H](NC(=O)C(C)(C)NC(=O)[C@H](CCC(N)=O)NC(=O)[C@@H](NC(=O)[C@](C)(Cc1ccccc1)NC(=O)[C@H](CC(=O)O)NC(=O)[C@H](CCCCNC(=O)COCCOCCNC(=O)COCCOCCNC(=O)CC[C@H](NC(=O)CC[C@H](NC(=O)CCCCCCCCCCCCCCCCCCC(=O)O)C(=O)O)C(=O)O)NC(=O)[C@H](C)NC(=O)[C@H](C)NC(=O)[C@H](CCCNC(=N)N)NC(=O)[C@H](CO)NC(=O)[C@H](CC(=O)O)NC(=O)[C@H](CC(C)C)NC(=O)[C@](C)(Cc1ccccc1)NC(=O)[C@H](CCCCN)NC(=O)[C@H](CO)NC(=O)[C@@H](NC(=O)[C@H](CC(=O)O)NC(=O)[C@H](CO)NC(=O)[C@@H](NC(=O)[C@](C)(Cc1ccccc1)NC(=O)[C@H](CO)NC(=O)CNC(=O)[C@H](Cc1c[nH]cn1)NC(=O)C(C)(C)NC(=O)[C@@H](N)Cc1c[nH]cn1)[C@@H](C)O)C(C)C)C(C)C)C(=O)N[C@@H](C)C(=O)N[C@@H](CC(N)=O)C(=O)N[C@H](C(N)=O)[C@@H](C)O [Peptide 229, H-Aib-H-G-S-αMePhe-T-S-D-V—S-K-αMePhe-L-D-S-R-A-A-K (E-(O2Oc)-(O2Oc)-γE-γE-C20diacid) 20-D-αMePhe-V-Q-Aib-I-A-N-T-amide] (H-H[Aib]HGS[αMeF]TSDVSK[αMeF]LDSRAAK([AEEA-AEEA-γGlu-γGlu-C20 diacid])D[αMeF]VQ[Aib]IANT-NH2; N-terminus assumed) |  |  |  |  |  | remaining at 5 min, 125 µM [8]: 100%; remaining at 10 min, 125 µM [8]: 97%; remaining at 0.25 h, 125 µM [8]: 91%; remaining at 0.5 h, 125 µM [8]: 79%; remaining at 0.5 h (recombinant Neprilysin; isolated enzyme neprilysin): 100%; remaining at 2 h (recombinant Neprilysin; isolated enzyme neprilysin): 100%; remaining at 4 h (recombinant Neprilysin; isolated enzyme neprilysin): 100%; remaining at 24 h (recombinant Neprilysin; isolated enzyme neprilysin): 100%; % intact peptide over time (recombinant Neprilysin): 100%; remaining at 5 min, 3.3 mg/mL [9]: 60%; remaining at 10 min, 3.3 mg/mL [9]: 46%; remaining at 0.25 h, 3.3 mg/mL [9]: 33%; remaining at 0.5 h, 3.3 mg/mL [9]: 26%; bioavailability (in vivo [3]; mouse): 86%; half-life (in vivo [3]; mouse): 19 h |
